# Assay results taken from US9393250B2, “Phthalocyanine compounds useful as RecA inhibitors and methods of using same” (University of Saskatchewan, priority 2012, dated 2016).
# Counter-ions that a name gives are not always drawn.
# Assays:
# E. coli strain ATCC25922 = assay: Antibiotic sensitivity assay (CFUs/ml), E. coli; assay type: cell-based, Escherichia coli; settings: for decrease in CFUs relative to ciprofloxacin treatment alone: compound 25 μM + ciprofloxacin 40 nM
# Method: (§1) Bacterial cultures were diluted to 10^5 cells/mL in LB broth (ATCC25922) or MH broth (ATCC27853, ATCC29212, ATCC29213). Antibiotics and/or phthalocyanines were added at indicated concentrations and the culture was incubated at 37° C. Samples were collected at 0, 24, 48, and 72 hours and plated on LB agar (ATCC25922) or tryptic soy blood agar (ATCC27853, ATCC29212, ATCC29213) to determine CFUs/ml.
# The ability of 4,4-Fe-PcTs and 3,4-Cu-PcTs to potentiate the activity of ciprofloxacin (abbreviated “CFX”) was tested. Ciprofloxacin inhibits DNA gyrase in bacteria, causing accumulation of double-stranded DNA breaks (DSBs) and inducing the SOS response. The inventors characterized the ability of 4,4-Fe-PcTs and 3,4-Cu-PcTs to potentiate the activity of ciprofloxacin in the pathogenic E. coli strain ATCC25922, which was used previously by Cirz et al. to evaluate the role of SOS response proteins in antibiotic resistance.
# [1] = tested on: SOS response (E. coli strain SS996); assay: SOS induction, GFP regulated by the sulA SOS promoter, flow cytometry; assay type: cell-based, Escherichia coli; settings: KAN 43 μM, CAM 46 μM, TET 21 μM, SPECT 808 μM; three hours
# Method: To confirm that the bactericidal antibiotic potentiating activity of 4,4-Fe-PcTs was correlated with reduced SOS induction, SOS induction in the E. coli strain SS996 was monitored. This strain contains a green fluorescent protein (GFP) regulated by the sulA SOS promoter.
# SS996 cultures were grown to an optical density at 600 nm (OD600) of 0.3. For cultures treated with 4,4-Fe-PcTs, the 4,4-Fe-PcTs was added to give a concentration of 25 μM and the culture was incubated for three hours at 37° C. Antibiotics were then added to yield concentrations of 2.5 μM (CFX), 40 μM (AMP), 43 μM (KAN), 21 μM (TET), 46 μM (CAM), or 808 μM (SPECT). Samples (˜10^6 cells) were taken immediately before the addition of antibiotics (time zero) and every hour for three hours. Samples were washed once in PBS, and resuspended in PBS prior to analysis by flow cytometry. GFP expression was monitored using flow cytometer (Beckman Coulter, Inc.) with a 488 nm argon laser and a 515-545 nm emission. Flow cytometry data were analyzed using Flowjo (Tree Star, Inc.).
# ATCC25922 E. coli = assay: Ciprofloxacin resistance assay and reconstruction assay (in vitro mutagenesis); assay type: cell-based, Escherichia coli
# Method: An in vitro mutagenesis assay [1] was used to measure the ability of 4,4-Fe-PcTs to block the acquisition of ciprofloxacin-induced resistance in ATCC25922 E. coli. ATCC25922 cells were plated on media containing ciprofloxacin in the presence or absence of 4,4-Fe-PcTs and cultured for 10 days. Colonies that appeared early in the assay (days 1 and 2) are believed to arise from pre-existing ciprofloxacin resistance mutations [1]. Colonies that appear later in the incubation (days 3 to 8) are due to ciprofloxacin resistance mutations acquired during exposure to ciprofloxacin or pre-existing mutations with a slow growth phenotype [1].
# To distinguish between these two types of mutants, a reconstruction assay that tests for the time it takes for colonies to appear in the presence of ciprofloxacin was used. Colonies that appear at least two days faster than they appeared in the original ciprofloxacin mutagenesis screen were classified as colonies that acquire resistance after exposure to ciprofloxacin [1]. Colonies that appeared in the same number of days as in the ciprofloxacin resistance assay were classified as colonies with pre-existing mutations [1].
# Twenty-five independent colonies of ATCC2592 were used to inoculate 25 LB broth cultures that were incubated at 37° C. for 25 hours. Viable cell counts in these cultures were determined by plating serial dilutions onto LB agar plates. One hundred microliters from each culture (˜10^8 cells) were plated in duplicate on LB agar containing ciprofloxacin (CFX) (40 nM) or ciprofloxacin (40 nM) and 4,4-Fe-PcTs (25 μM) (CFX+4,4-Fe-PcTs). Three additional 100 μL aliquots from three cultures were also plated on the same media to determine the number of viable cells per day. At 24 hour intervals, visible colonies were counted, removed from the plate, and stored at −80° C. for later use in the reconstruction assay and sequencing. Every 24 hours, in parallel with the resistance assay, small plugs of agar between visible colonies were excised from resistance assay plates. Agar plugs were homogenized in M9 buffer. Dilutions were plated in duplicate on LB plates to determine the total number of viable cells per day. The cells were also plated on LB containing CFX (40 nM) to determine if any CFX-resistant colonies remained after excision [1].
# Reconstruction assays were used to determine whether ciprofloxacin resistant colonies were due to post-exposure mutation or due to mutation prior to ciprofloxacin exposure. Ciprofloxacin resistant clones isolated from the resistance assay were grown to saturation in LB media in 96 well plates. Cultures were then replica-plated in duplicate using a 96-pin replicator on LB plates to confirm viability and LB plates containing ciprofloxacin (40 nM) to confirm ciprofloxacin resistance. Ciprofloxacin-resistant clones that were isolated in the presence 4,4-Fe-PcTs were replica plated on LB and LB containing 4,4-Fe-PcTs (25 μM) and ciprofloxacin (40 nM). Clones that were resistant before ciprofloxacin exposure were defined as clones that formed colonies on the ciprofloxacin-containing media in the same number of days in the reconstruction assay as in the original resistance assay. Clones that mutated after exposure to ciprofloxacin were defined as clones that formed colonies earlier than in the original resistance assay [1].
# The rate of ciprofloxacin resistance was defined as the number of ciprofloxacin-resistant mutants per viable cell that evolve as a function of time. […]
# [2] = tested on: Pseudomonas aeruginosa ATCC27853; assay: Antibiotic sensitivity assay (CFUs/ml), P. aeruginosa; assay type: cell-based; settings: ciprofloxacin 6.5 μM
# Method: as §1
# To confirm that the activity of 4,4-Fe-PcTs was not specific to the gram-negative ATCC25922 E. coli, the ability of 4,4-Fe-PcTs to potentiate the activity of ciprofloxacin in another gram-negative (Pseudomonas aeruginosa ATCC27853) strain and two gram-positive (Staphylococcus aureus ATCC29213 and Enterococcus faecalis ATCC29212) strains was evaluated.
# ATCC25922 cells = assay: Neutropenic murine bacterial thigh infection model; assay type: in vivo, Escherichia coli; settings: mice treated only with ciprofloxacin 1 mg/kg s.c.; after 72 hours of infection
# Method: Six-eight week-old, specific-pathogen-free, female CD-1 mice (weight, 25-35 g) were rendered neutropenic by intraperitoneal injection with 150 mg/kg cylcophosphamide (Sigma) four days before infection and 100 mg/kg cyclophosphamide 24 hours before infection. LB broth cultures inoculated from fresh ATCC25922 colonies and cells were grown to the log phase (OD600 of approximately 0.3) and diluted 1:1000 in LB broth. Thigh infections were produced by injecting 50 μl (approximately 10^6 CFUs) of diluted cultures into halothane-anesthetized mice. One group of mice was administrated inteperitoneal injection of 4,4-Fe-PcTs in conjunction with the second dose of cyclophosphamide (24 hours prior infection) (4,4-Fe-PcTs (pre)+CFX). Starting two hours after infection (defined as time zero), mice were administered subcutaneous injections of either 1 mg/kg ciprofloxacin alone (CFX) or co-treatment of 1 mg/kg ciprofloxacin with interperitoneal injection of 10 mg/kg 4,4-Fe-PcTs (4,4-Fe-PcTs+CFX and 4,4-Fe-PcTs (pre)+CFX) every 24 hours for 3 days. After 48 and 72 hours, three mice from each group were sacrificed, and their thighs removed and homogenized to determine the number of viable bacterial cells for both ciprofloxacin-sensitive and ciprofloxacin-resistant ATCC25922 cells. Serial dilutions of homogenates of the infected thigh were plated on LB agar (CFX Sensitive) and LB agar plates containing ciprofloxacin (40 nM) (CFX Resistant) to count viable cells for each of the three treatment groups.
# EcRecA / EcLexA = EcRecA / EcLexA (Escherichia coli, UniProt P0A7G6); settings: in presence of ATPγS
# Method: The LexA cleavage reaction (10 μl) contained 1 μM poly-(dT)45, 2 μM EcRecA, 10 μM EcLexA, 0.1 mM ATP-γ-S, 20 mM MgAc2, 50 mM Hepes-Tris at pH 7.6 and indicated concentrations of 4,4-Fe-PcTs or 3,4-Cu-PcTs. The reaction was incubated for 120 minutes at 21° C. and stopped by the addition of 5 μl of loading buffer (30% glycerol, 10% SDS, 0.2 M Tris-HCl at pH 6.8, 0.1% v/v 2-mercaptoethanol and 0.1% w/v bromophenol blue). The products were resolved using a 13% SDS-polyacrylamide gel. The proteins were stained with Coomassie Blue-R250.
# RecA [3] = biological target: T1, RecA (Escherichia coli, UniProt P0A7G6); settings: 3,4-Cu-PcTs 3.75 μM; RecA 3.5 μM; AMPPNP
# Target sequence in this assay (P0A7G6 2-353): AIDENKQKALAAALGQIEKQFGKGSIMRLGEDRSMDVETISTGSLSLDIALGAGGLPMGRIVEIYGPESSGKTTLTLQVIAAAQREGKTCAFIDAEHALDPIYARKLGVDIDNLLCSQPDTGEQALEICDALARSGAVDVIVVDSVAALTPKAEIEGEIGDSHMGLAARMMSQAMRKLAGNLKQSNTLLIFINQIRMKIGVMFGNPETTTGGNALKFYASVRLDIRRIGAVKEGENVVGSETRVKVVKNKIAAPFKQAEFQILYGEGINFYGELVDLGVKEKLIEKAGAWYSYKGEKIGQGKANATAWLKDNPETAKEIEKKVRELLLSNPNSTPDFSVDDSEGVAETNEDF
# Method: RecA-dsDNA-AMPPNP complexes formed by incubating RecA (3.5 μM), calf thymus dsDNA (Sigma) at a 40 dsDNA:1 RecA ratio (w/w), AMP-PNP (adenosine 5′-(β,γ-imido)triphosphate) (Sigma) (1.3 mM), MgAc2 (Sigma) (2 mM), triethanolamine-HCl (Fisher) buffer (25 mM, pH 7.2) with or without 3,4-Cu-PcTs (3.75 μM) at 37° C. for 10 minutes. Samples were applied to carbon-coated grids and stained with 2% uranyl acetate (w/v). Images were recorded on film with a Tecnai 12 electron microscope operating at 80 keV with a nominal magnification of 30,000×. Negatives were scanned with a Nikon Coolscan 8000 densitometer at a raster of 4.2 Å/pixel.
# EcRecA [4] = biological target: T2, EcRecA (Escherichia coli, UniProt P0A7G6); settings: compound 10 μM; poly-(dT)36-stimulated; relative to reaction without inhibitor
# Method: An ATPase assay [18] was used to screen a set of commercially available anionic, aromatic molecules for inhibitors of RecA ATPase activity. The release of inorganic phosphate by ATP hydrolysis was monitored using a Malachite Green phosphate assay [18]. The ssDNA-dependent ATPase reaction contained 1 μM EcRecA, 6 μM ssDNA (poly-(dT)36, concentration in nucleotides), 5 mM ATP, 50 mM Tris-Hepes buffer at pH 7.4, 10 mM MgCl2, 0.1% v/v 2-mercaptoethanol, and indicated amounts of 4,4-Fe-PcTs or 3,4-Cu-PcTs. Phosphate levels were measured by transferring 25 μl of ATPase reaction to 475 μl of malachite green phosphate assay, which contained 0.033% w/v Malachite Green, 1.3% w/v ammonium molybdate. 1.0 M HCl was used to monitor the release of inorganic phosphate by ATP hydrolysis [18]. The green complex formed between Malachite Green, molybdate, and free orthophosphate was measured by recording the absorbance at 620 nm.
# Results are the average of two independent experiments where the deviation was less than 10%.
# RecA [5] = biological target: T1, RecA
# Method: RecA (5 μM) and 3,4-Cu-PcTs (50 μM) were incubated in 0.15 M NaCl and 0.05 M Tris-HCl buffer at pH 7.4. The protein complexes were resolved by loading 2 ml of RecA/3,4-Cu-PcTs on a Pharmacia sephacryl S-300 column pre-equilibrated with the running buffer. The size exclusion column was calibrated with standard proteins with molecular weights of 35, 67, and 167 KD. Elution of proteins off the size exclusion column was monitored using absorbance at 280 nm.
# Target sequence in this assay (P0A7G6 whole entry): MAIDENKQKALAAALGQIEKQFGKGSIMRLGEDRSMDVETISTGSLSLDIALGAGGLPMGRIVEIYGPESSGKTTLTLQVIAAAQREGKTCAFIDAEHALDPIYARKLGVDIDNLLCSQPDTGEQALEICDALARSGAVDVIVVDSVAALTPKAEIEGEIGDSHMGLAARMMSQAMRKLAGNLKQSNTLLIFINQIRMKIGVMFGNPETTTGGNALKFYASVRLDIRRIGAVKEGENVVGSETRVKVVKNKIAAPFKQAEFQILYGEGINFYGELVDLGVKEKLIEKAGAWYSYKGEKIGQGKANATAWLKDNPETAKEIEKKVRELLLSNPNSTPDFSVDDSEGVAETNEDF
# EcRecA [6] = biological target: T2, EcRecA; settings: gel shift; 0, 10, 100 μM
# EcRecA [7] = biological target: T2, EcRecA; settings: gel shift; 0, 10, 100 μM; remark: listed apart in the source
# Method: EcRecA (4 μM), a 1.0-kb double-stranded DNA (dsDNA) PCR product (12 μM in base pairs), and indicated concentrations of 4,4-Fe-PcTs or 3,4-Cu-PcTs were incubated in binding buffer (5 mM MgAc2, 50 mM Tris-Hepes at pH 7.6) for 10 minutes at 37° C. EcRecA bound (slower migrating) and unbound dsDNA were resolved using a 1.0% agarose gel. The gel was stained with ethidium bromide and the fluorescence emission in the gel was recorded using a Kodak GelLogic 200 system.
# DltA = DltA (Bacillus cereus, UniProt Q81G39); assay: DltA control for specificity of ATPase inhibition; assay type: biochemical; settings: DltA assayed in the presence of 3,4-Cu-PcTs
# Text: DltA catalyzes the breakdown of ATP into AMP and pyrophosphate, which is further broken down by yeast pyrophosphatase into phosphate for quantification. Results are the average of two independent experiments where the deviation was less than 10%.
# EcRecA [8] = biological target: T2, EcRecA; settings: in presence of ATPγS
# Method: EcRecA (5 μM) was incubated with indicated concentrations of 4,4-Fe-PcTs or 3,4-Cu-PcTs in strand exchange buffer (2 mM ATP-γ-S(Sigma-Aldrich), 10 mM MgAc2, 100 mM KAc, 50 mM Hepes-Tris buffer at pH 7.6, 0.1% v/v 2-mercaptoethanol) for 10 minutes at 37° C. FAM43 (0.35 μM) was added and the reaction was incubated for 2 minutes. The reaction was started by the addition of 0.35 μM of the dsDNA substrate (annealing product of equimolar oligonucleotides 45A and 55A). The reaction was stopped at 30 minutes by adding EDTA to a final concentration of 20 mM and trypsin to a final concentration of 1 μg/μl. After 10 minutes, 10 μl of the reaction was mixed with 5 μl of loading buffer (30% glycerol and 0.1% bromophenol blue) and products were resolved using a 20% native acrylamide gel. The fluorescence emission in the gel was recorded using a Kodak GelLogic 200 system.
# [9] = tested on: bacteria / ΔrecA bacterial strain; settings: cited from earlier work
# MvRadA = MvRadA (Methanococcus voltae, UniProt O73948); settings: cited from earlier work
# RecA [10] = biological target: T1, RecA; settings: cited from earlier work
# Target sequence in this assay (P0A7G6 2-353): as the sequence (P0A7G6 2-353) above
# T2 sequence (P0A7G6 whole entry): as the sequence (P0A7G6 whole entry) above
# Chain of MvRadA (O73948 whole entry): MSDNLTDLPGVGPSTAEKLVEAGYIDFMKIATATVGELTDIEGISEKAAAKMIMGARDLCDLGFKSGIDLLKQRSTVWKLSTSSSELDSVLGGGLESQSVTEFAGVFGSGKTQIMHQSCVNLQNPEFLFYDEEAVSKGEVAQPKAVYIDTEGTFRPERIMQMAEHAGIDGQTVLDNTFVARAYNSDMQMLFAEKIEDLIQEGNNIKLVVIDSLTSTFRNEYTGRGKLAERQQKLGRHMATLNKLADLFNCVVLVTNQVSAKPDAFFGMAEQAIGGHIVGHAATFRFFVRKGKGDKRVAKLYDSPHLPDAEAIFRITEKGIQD
# Chain of EcRecA / EcLexA (P0A7G6 whole entry): as the sequence (P0A7G6 whole entry) above
# Chain of DltA (Q81G39 whole entry): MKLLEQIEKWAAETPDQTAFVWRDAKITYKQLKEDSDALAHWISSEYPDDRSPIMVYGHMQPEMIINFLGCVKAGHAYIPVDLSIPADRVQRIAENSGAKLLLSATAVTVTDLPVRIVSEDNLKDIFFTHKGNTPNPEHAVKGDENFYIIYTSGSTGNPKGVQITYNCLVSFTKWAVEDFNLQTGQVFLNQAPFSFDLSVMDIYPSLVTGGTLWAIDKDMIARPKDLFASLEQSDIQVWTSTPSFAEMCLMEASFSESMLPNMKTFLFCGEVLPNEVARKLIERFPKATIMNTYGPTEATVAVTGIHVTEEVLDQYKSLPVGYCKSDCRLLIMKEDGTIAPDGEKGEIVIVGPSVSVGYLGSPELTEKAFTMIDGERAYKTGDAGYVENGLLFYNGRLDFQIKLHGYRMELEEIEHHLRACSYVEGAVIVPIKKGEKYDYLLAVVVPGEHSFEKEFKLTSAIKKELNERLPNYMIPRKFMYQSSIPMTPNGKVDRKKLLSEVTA
compound,measurement,setting,value
aluminum (III) phthalocyanine chloride tetrasulfonic acid [Al-PcTs],decrease in CFUs relative to ciprofloxacin treatment alone,E. coli strain ATCC25922; 24 hours,~100 fold
phthalocyanine tetrasulfonic acid [H-PcTs],decrease in CFUs relative to ciprofloxacin treatment alone,E. coli strain ATCC25922; 24 hours,~100 fold
O=C(N[C@H](CO)[C@H](O)c1ccc([N+](=O)[O-])cc1)C(Cl)Cl [chloramphenicol],induction of SOS-GFP reporter by antibiotic alone,[1],only very low levels of GFP expression
"NC[C@H]1O[C@H](O[C@H]2[C@H](O)[C@@H](O[C@H]3O[C@H](CO)[C@@H](O)[C@H](N)[C@H]3O)[C@H](N)C[C@@H]2N)[C@H](O)[C@@H](O)[C@@H]1O [Kanamycin, kanamycin monosulfate]",induction of SOS-GFP reporter by antibiotic alone,[1],did not induce the SOS-GFP reporter
"O=C(O)c1cn(C2CC2)c2cc(N3CCNCC3)c(F)cc2c1=O [ciprofloxacin, ciprofloxacin hydrochloride, reference compound]",ciprofloxacin-resistant cells over time,ATCC25922 E. coli; cells treated with only ciprofloxacin,spike in ciprofloxacin-resistant cells at day 5
same,ciprofloxacin-resistant colonies caused by pre-existing mutations,ATCC25922 E. coli; ciprofloxacin-alone (40 nM),29%
same,sensitivity of ATCC27853 to ciprofloxacin compared with gram-positive strains,[2],less sensitive to ciprofloxacin than the two gram-positive strains
same,ciprofloxacin-resistant cells in thigh,ATCC25922 cells,"Approximately 50,000 cells"
copper phthalocyanine-tetrasulfonic acid [Cu-PcTs],decrease in CFUs relative to ciprofloxacin treatment alone,E. coli strain ATCC25922; 24 hours,~100 fold
nickel (II) phthalocyanine-tetrasulfonic acid [Ni-PcTs],decrease in CFUs relative to ciprofloxacin treatment alone,E. coli strain ATCC25922; 24 hours,~100 fold
"copper phthalocyanine-3,4′,4″,4′″-tetrasulfonic acid tetrasodium salt [3,4-Cu-PcTs]",inhibition of LexA cleavage,EcRecA / EcLexA,inhibited
same,effect on RecA filament formation,RecA [3],inhibited
same,potentiation of ciprofloxacin activity,E. coli strain ATCC25922; ciprofloxacin 40 nM,potentiated the activity of ciprofloxacin
same,colony forming units (CFUs),E. coli strain ATCC25922; co-treated with ciprofloxacin 40 nM and compound at concentrations above 25 μM,no colony forming units (CFUs) were observed
same,CFUs,"E. coli strain ATCC25922; compound 25 μM plus ciprofloxacin 40 nM, 24 hours",no CFUs were observed
same,inhibition of EcRecA ATPase activity,EcRecA [4],high degree of inhibition
same,effect on molecular weight (oligomeric state) of RecA complex,"RecA [5]; 3,4-Cu-PcTs 50 μM, RecA 5 μM",reduced the molecular weight of the RecA complex to a size consistent to the RecA ring-shaped hexamer storage complex
same,"elution size of 3,4-Cu-PcTs/RecA complex","RecA [5]; pre-incubation with 3,4-Cu-PcTs 50 μM, RecA alone eluted near the void volume",~200 KD
same,inhibition of RecA ssDNA-binding activity,EcRecA [6],in the micromolar range
same,inhibition of RecA dsDNA-binding activity,EcRecA [7],in the micromolar range
same,specificity of ATPase inhibition (DltA control),DltA,specific for inhibiting RecA ATPase activity
same,inhibition of DNA strand-exchange,EcRecA [8],inhibited
"CN[C@@H]1[C@H](O)[C@H](NC)[C@H]2O[C@@]3(O)C(=O)C[C@@H](C)O[C@H]3O[C@@H]2[C@H]1O [spectinomycin, spectinomycin dihydrochloride]",induction of SOS-GFP reporter by antibiotic alone,[1],only very low levels of GFP expression
"CO[C@H]1/C=C/O[C@@]2(C)Oc3c(C)c(O)c4c(O)c(cc(O)c4c3C2=O)NC(=O)/C(C)=C\C=C\[C@H](C)[C@H](O)[C@@H](C)[C@@H](O)[C@@H](C)[C@H](OC(C)=O)[C@@H]1C [Rifamycin, rifamycin]",SOS response and killing of bacteria,[9]; bacteria with RecA,"activates the SOS response, but does not kill bacteria"
same,activity in ΔrecA bacterial strain,[9]; ΔrecA bacterial strain,shows bactericidal activity
zinc (II) phthalocyanine tetrasulfonic acid [Zn-PcTs],decrease in CFUs relative to ciprofloxacin treatment alone,E. coli strain ATCC25922; 24 hours,~100 fold
metatungstate (W12O40^6−),"MvRadA ATPase, DNA-binding, and DNA strand-exchange activities",MvRadA,inhibited
same,inhibition of RecA activity within E. coli cells,RecA [10],unable to inhibit
